Measured values: patent publication US8247556B2, “Method for preparing 6-substituted-7-aza-indoles” (Amgen Inc., priority 2005, dated 2012)

What follows are compounds tested on VEGF-stimulated HUVEC proliferation (Human Umbilical Vein Endothelial cells) (assay: HUVEC Proliferation Assay). Conditions: VEGF 50 ng/mL, 72 h, CyQuant fluorescent dye, read-out: inhibited VEGF-stimulated HUVEC proliferation at a level.
Format: cell-based
Procedure: Human Umbilical Vein Endothelial cells are purchased from Clonetics, Inc., as cryopreserved cells harvested from a pool of donors. These cells, at passage 1, are thawed and expanded in EBM-2 complete medium, until passage 2 or 3. The cells are trypsinized, washed in DMEM+10% FBS+antibiotics, and spun at 1000 rpm for 10 min. Prior to centrifugation of the cells, a small amount is collected for a cell count. After centrifugation, the medium is discarded, and the cells are resuspended in the appropriate volume of DMEM+10% FBS+antibiotics to achieve a concentration of 3×10^5 cells/mL. Another cell count is performed to confirm the cell concentration. The cells are diluted to 3×10^4 cells/mL in DMEM+10% FBS+antibiotics, and 100 μL of cells are added to a 96-well plate. The cells are incubated at 37° C. for 22 h.
Prior to the completion of the incubation period, compound dilutions are prepared. Five-point, five-fold serial dilutions are prepared in DMSO, at concentrations 400-fold greater than the final concentrations desired. 2.5 μL of each compound dilution are diluted further in a total of 1 mL DMEM+10% FBS+antibiotics (400× dilution). Medium containing 0.25% DMSO is also prepared for the 0 μM compound sample. At the 22 h time point, the medium is removed from the cells, and 100 μL of each compound dilution is added. The cells are incubated at 37° C. for 2-3 h.
During the compound pre-incubation period, the growth factors are diluted to the appropriate concentrations. Solutions of DMEM+10% FBS+antibiotics, containing either VEGF or bFGF at the following concentrations: 50, 10, 2, 0.4, 0.08, and 0 ng/mL are prepared. For the compound-treated cells, solutions of VEGF at 550 ng/mL or bFGF at 220 ng/mL for 50 ng/mL or 20 ng/mL final concentrations, respectively, are prepared since 10 μL of each will be added to the cells (110 μL final volume). At the appropriate time after adding the compounds, the growth factors are added. VEGF is added to one set of plates, while bFGF is added to another set of plates. For the growth factor control curves, the media on wells B4-G6 of plates 1 and 2 are replaced with media containing VEGF or bFGF at the varying concentrations (50-0 ng/mL). The cells are incubated at 37° C. for an additional 72 h.
At the completion of the 72 h incubation period, the medium is removed, and the cells are washed twice with PBS. After the second wash with PBS, the plates are tapped gently to remove excess PBS, and the cells are placed at −70° C. for at least 30 min. The cells are thawed and analyzed using the CyQuant fluorescent dye (Molecular Probes C-7026), following the manufacturer's recommendations. The plates are read on a Victor/Wallac 1420 workstation at 485 nm/530 nm (excitation/emission). Raw data are collected and analyzed using a 4-parameter fit equation in XLFit. IC50 values are then determined.

SMILES | IC50
CC1(C)CCNc2cc(NC(=O)c3cccnc3NCc3ncnc4[nH]ccc34)ccc21 [Example 131, N-(4,4-Dimethyl-1,2,3,4-tetrahydro-7-quinolinyl)-2-((7H-pyrrolo[2,3-d]pyrimidin-4-ylmethyl)amino)-3-pyridinecarboxamide] | < 500 nM
CC1(C)CNCc2cc(NC(=O)c3cccnc3NCc3ccnc4[nH]ccc34)cnc21 [Example 11] | < 500 nM
Cc1ccc(NC(=O)c2cc(F)cnc2NCc2ccnc3[nH]ccc23)cc1Cl [Example 110, N-(3-chloro-4-methylphenyl)-5-fluoro-2-((1H-pyrrolo[2,3-b]pyridin-4-ylmethyl)amino)-3-pyridinecarboxamide] | < 500 nM
CC1Sc2ccc(NC(=O)c3cc(F)cnc3NCc3ccnc4[nH]ccc34)cc2NC1=O (stereo not drawn) [Example 108, 5-fluoro-N-(2-methyl-3-oxo-3,4-dihydro-2H-1,4-benzothiazin-6-yl)-2-((1H-pyrrolo[2,3-b]pyridin-4-ylmethyl)amino)-3-pyridinecarboxamide] | < 500 nM
CC1(C)CCNc2cc(NC(=O)c3cccnc3NCc3ccnc4c3CC(=O)N4)ccc21 [Example 73, N-(4,4-Dimethyl-1,2,3,4-tetrahydro-quinolin-7-yl)-2-[(2-oxo-2,3-dihydro-1H-pyrrolo[2,3-b]pyridin-4-ylmethyl)-amino]-nicotinamide] | < 500 nM
O=C(Nc1ccc(C(O)(C(F)(F)F)C(F)(F)F)cc1)c1cccnc1NCc1ccnc2[nH]ccc12 [Example 17, 2-[(1H-Pyrrolo[2,3-b]pyridin-4-ylmethyl)amino]-N-{4-[2,2,2-trifluoro-1-hydroxy-1-(trifluoromethyl)ethyl]phenyl}nicotinamide] | < 500 nM
CN1CCC[C@H]1COc1cc(NC(=O)c2cccnc2NCc2ccnc3[nH]ccc23)cc(C(F)(F)F)c1 [Example 35, N-[3-{[(2S)-1-methylpyrrolidin-2-yl]methoxy}-5-(trifluoromethyl)phenyl]-2-[(1H-pyrrolo[2,3-b]pyridin-4-ylmethyl)amino]nicotinamide] | < 500 nM
CC(C)(C)c1ccc(NC(=O)c2cc(Cl)cnc2NCc2ccnc3[nH]ccc23)cc1 [Example 88, 5-chloro-N-(4-(1,1-dimethylethyl)phenyl)-2-((1H-pyrrolo[2,3-b]pyridin-4-ylmethyl)amino)-3-pyridinecarboxamide] | < 500 nM
O=C(Nc1ccc(C(F)(F)C(F)(F)F)c(OCCN2CCCC2)c1)c1cccnc1NCc1ccnc2[nH]ccc12 [Example 63, N-[4-pentafluoroethyl-3-(2-pyrrolidin-1-yl-ethoxy)-phenyl]-2-[(1H-pyrrolo[2,3-b]pyridin-4-ylmethyl)-amino]-nicotinamide] | < 500 nM
CC(C)Oc1ccc(NC(=O)c2cc(F)cnc2NCc2ccnc3[nH]ncc23)cc1 [Example 124, 5-Fluoro-N-(4-((1-methylethyl)oxy)phenyl)-2-((1H-pyrazolo[3,4-b]pyridin-4-ylmethyl)amino)-3-pyridinecarboxamide] | < 500 nM
CC1(C)CN(C(=O)[C@@H]2CCN2)c2cc(NC(=O)c3cccnc3NCc3ccnc4[nH]ccc34)ccc21 [Example 23, N-{1-[(2S)-Azetidin-2-ylcarbonyl]-3,3-dimethyl-2,3-dihydro-1H-indol-6-yl}-2-[(1H-pyrrolo[2,3-b]pyridin-4-ylmethyl)amino]nicotinamide] | < 500 nM
O=C(Nc1ccc(C(F)(F)F)c(Cl)c1)c1cc(F)cnc1NCc1ccnc2[nH]ccc12 [Example 100, N-(3-chloro-4-(trifluoromethyl)phenyl)-5-fluoro-2-((1H-pyrrolo[2,3-b]pyridin-4-ylmethyl)amino)-3-pyridinecarboxamide] | < 500 nM
CC1(C)CNCc2cc(NC(=O)c3cc(F)cnc3NCc3ccnc4[nH]ccc34)ccc21 [Example 101, N-(4,4-dimethyl-1,2,3,4-tetrahydro-7-isoquinolinyl)-5-fluoro-2-((1H-pyrrolo[2,3-b]pyridin-4-ylmethyl)amino)-3-pyridinecarboxamide] | < 500 nM
Cc1nc2cc(NC(=O)c3cc(F)cnc3NCc3ccnc4c3CCN4)ccc2s1 [Example 115, 2-((2,3-dihydro-1H-pyrrolo[2,3-b]pyridin-4-ylmethyl)amino)-5-fluoro-N-(2-methyl-1,3-benzothiazol-5-yl)-3-pyridinecarboxamide] | < 500 nM
O=C(Nc1cc(CCCN2CCOCC2)cc(C(F)(F)F)c1)c1cccnc1NCc1ccnc2[nH]ccc12 [Example 60, N-(3-(3-(4-morpholinyl)propyl)-5-(trifluoromethyl)phenyl)-2-((1H-pyrrolo[2,3-b]pyridin-4-ylmethyl)amino)-3-pyridinecarboxamide] | < 500 nM
O=C(Nc1cccc(C(OC[C@@H]2CCCN2)(C(F)(F)F)C(F)(F)F)c1)c1cccnc1NCc1ccnc2[nH]ccc12 [Example 19, (S)-2-((1H-pyrrolo[2,3-b]pyridin-4-yl)methylamino)-N-(3-(1,1,1,3,3,3-hexafluoro-2-(pyrrolidin-2-ylmethoxy)propan-2-yl)phenyl)nicotinamide] | < 500 nM
O=C(Nc1ccc(Cl)c(C(F)(F)F)c1)c1cc(F)cnc1NCc1ccnc2[nH]ncc12 [Example 119, N-(4-Chloro-3-(trifluoromethyl)phenyl)-5-fluoro-2-((1H-pyrazolo[3,4-b]pyridin-4-ylmethyl)amino)-3-pyridinecarboxamide] | < 500 nM
O=C(Nc1ccc(C(F)(F)F)c(OCC2CCCO2)c1)c1cccnc1NCc1ccnc2[nH]ccc12 (stereo not drawn) [Example 57, 2-[(1H-Pyrrolo[2,3-b]pyridin-4-ylmethyl)-amino]-N-[3-(tetrahydro-furan-2-ylmethoxy)-4-trifluoromethyl-phenyl]-nicotinamide] | < 500 nM
Cc1ccc(NC(=O)c2cc(F)cnc2NCc2ccnc3[nH]ccc23)cc1 [Example 109, 5-fluoro-N-(4-methylphenyl)-2-((1H-pyrrolo[2,3-b]pyridin-4-ylmethyl)amino)-3-pyridinecarboxamide] | < 500 nM
CC1(C)CCNc2cc(NC(=O)c3cccnc3NCc3ccnc4[nH]ncc34)ccc21 [Example 71, N-(4,4-Dimethyl-1,2,3,4-tetrahydro-7-quinolinyl)-2-((1H-pyrazolo[3,4-b]pyridin-4-ylmethyl)amino)-3-pyridinecarboxamide] | < 500 nM
O=C(Nc1cccc(C(F)(F)F)c1)c1cc(F)cnc1NCc1ccnc2[nH]ncc12 [Example 122, 5-Fluoro-2-((1H-pyrazolo[3,4-b]pyridin-4-ylmethyl)amino)-N-(3-(trifluoromethyl)phenyl)-3-pyridinecarboxamide] | < 500 nM
CC1(C)CNCc2cc(NC(=O)c3cccnc3NCc3ccnc4c3CCN4)ccc21 [Example 25, 2-[(2,3-Dihydro-1H-pyrrolo[2,3-b]pyridin-4-ylmethyl)amino]-N-(4,4-dimethyl-1,2,3,4-tetrahydroisoquinolin-7-yl)nicotinamide] | < 500 nM
O=C(Nc1ccc2ccncc2c1)c1cccnc1NCc1ccnc2[nH]ccc12 [Example 55, N-Isoquinolin-7-yl-2-[(1H-pyrrolo[2,3-b]pyridin-4-ylmethyl)-amino]-nicotinamide] | < 500 nM
O=C(Nc1ccc2c(c1)NCC21CC1)c1cccnc1NCc1ccnc2[nH]ccc12 [Example 8] | < 500 nM
O=C(Nc1ccc(Cl)c(C(F)(F)F)c1)c1cc(F)cnc1NCc1ccnc2[nH]ccc12 [Example 90, N-(4-chloro-3-(trifluoromethyl)phenyl)-5-fluoro-2-((1H-pyrrolo[2,3-b]pyridin-4-ylmethyl)amino)-3-pyridinecarboxamide] | < 500 nM
O=C(Nc1cc(O[C@@H]2CCOC2)cc(C(F)(F)F)c1)c1cccnc1NCc1ccnc2[nH]ccc12 [Example 47, 2-[(1H-pyrrolo[2,3-b]pyridin-4-ylmethyl)amino]-N-[3-[(3R)-tetrahydrofuran-3-yloxy]-5-(trifluoromethyl)phenyl]nicotinamide] | < 500 nM
CN1CCN(Cc2cc(NC(=O)c3cccnc3NCc3ccnc4[nH]ccc34)ccc2C(F)(F)C(F)(F)F)CC1 [Example 46, N-[3-(4-Methyl-piperazin-1-ylmethyl)-4-pentafluoroethyl-phenyl]-2-[(1H-pyrrolo[2,3-b]pyridin-4-ylmethyl)-amino]-nicotinamide] | < 500 nM
